{"source": "patent US10227295B2", "about": "“Selective histone deactylase 6 inhibitors” (H. LEE MOFFITT CANCER CENTER AND RESEARCH INSTITUTE, INC., priority 2013, dated 2019)", "key": {"[1]": {"tested_on": "NRAS and BRAF mutant human melanoma cell lines", "assay": "Human melanoma cell proliferation MTS assay", "type": "cell-based", "conditions": "24 h, panel of human melanoma cell lines", "experimental": "Cell proliferation was evaluated using various pan- and isotype selective HDACi in a broad panel of human melanoma cell lines. Briefly, cells were plated at 10×10^3/well in a 96 well flat bottom plate. The following day, media was changed to that containing different concentrations of HDACi or matched DMSO vehicle concentrations diluted in complete medium done in triplicate, all with a final concentration of less than 0.1% DMSO. Cells were incubated for 24 hours at 37° C. and 5% CO2. […] All values were then normalized and expressed as a percentage of medium control growth."}, "[2]": {"tested_on": "acetyl-tubulin and acetyl-histone3 in human melanoma cell lines", "assay": "Western blot of HDAC substrate acetylation in human melanoma cells", "type": "cell-based", "conditions": "24 hrs", "experimental": "Error bars represent standard deviation from triplicates. This figure is representative of three independent experiments. (F,G,H) Cell cycle analysis of melanoma WM164, WM983A and WM793 human melanoma cell lines stained with propidium iodide. Data is representative of three experiments with similar results.\nTo confirm the selectivity of isotype specific HDACi, Western blot analysis was performed on the acetylation status of known HDAC substrates including histone H3 and H4, which are known Class I HDAC targets, and α-tubulin, a target for HDAC6. The doses required to impart the anti-proliferative effect coincided with that needed to increase acetylation of the respective HDAC substrates (FIG. 41F-41H). […] Conversely, HDAC6 selective inhibitors (HDAC6i) increase α-tubulin acetylation but not histone acetylation (FIG. 41F)."}, "[3]": {"tested_on": "human melanoma cell lines", "assay": "Cell cycle analysis by propidium iodide staining", "type": "cell-based", "experimental": "Cells were treated with indicated doses of HDAC inhibitors or DMSO control and then trypsinized, washed, and rendered into a single cell suspension in 1 mL of DPBS. 4 mL ice cold 200 proof ethyl alcohol was added dropwise while vortexing to fix cells. Samples were washed and resuspended in 75% ethanol solution overnight. Then, cells were washed in PBS+0.1% Triton X-100 and counted. Equal numbers of cells were then stained in a solution containing 10 μg/mL RNAseA+1 μg/mL propidium iodide for 2 hours at room temperature. Data was then acquired using a FACSCaliber with at least 10,000 events collected. Cell cycle analysis was completed using ModFit LT (Verity Software House, Topsham, Me.)."}, "[4]": {"tested_on": "B16 murine melanoma cells", "assay": "B16 melanoma cell growth inhibition MTS assay", "type": "cell-based", "conditions": "Mus musculus; B16 murine melanoma cells, 48 h, MTS", "experimental": "B16 murine melanoma cells were plated at 5×10^3/well in 96 well flat bottom plates. The following day, media was changed to that containing various concentrations of HDACi or matched DMSO vehicle concentrations diluted in complete medium done in triplicate. Cells were incubated for 48 hours at 37° C. and 5% CO2. […] Briefly, 20 μL of reagent were added per well and incubated at 37° C. for 3 hours. […] All values were then normalized and expressed as a percentage of medium control (100%)."}, "[5]": {"tested_on": "melanoma antigens gp100, MART1, TYRP1 and TYRP2 in human melanoma cell lines", "assay": "Tumor antigen expression by qRT-PCR", "type": "cell-based", "conditions": "48 hours", "experimental": "(D) Expression of tumor antigens was measured in human WM164 non-target and HDAC6KD cells. (E) Expression of tumor antigens mart-1 and gp-100 was measured by western blot.\nIn addition to direct cytotoxicity, pan-HDACi have immunologic effects on melanoma including modulation of MHC, co-stimulatory molecules, and cytokine production. In both human and murine melanoma cell lines, genetic (FIG. 43A) and pharmacologic (FIG. 43B) disruption of HDAC6 led to increased surface expression of MHC I by flow cytometry."}, "[6]": {"tested_on": "STAT3 in APCs", "assay": "STAT3 phosphorylation and recruitment to IL-10 gene promotor in APCs", "type": "cell-based", "description": "FIG. 26 is a flow chart depicting the experimental design of the in vitro antigen-presenting studies.\nHuman MCL cells display an enhanced expression of HDAC6. Disruption of HDAC6 in malignant B-cells inhibits their proliferation and is associated with induction of apoptosis. Pharmacologic or genetic disruption of HDAC6 in MCL cells augment their antigen-presenting capabilities leading to better T-cell activation and restoration of function of anergic Tcells in vitro. […] Disclosed herein is the rationale to use HDAC6 specific inhibitor(s) alone or in combination with STAT3 inhibitors in MCL."}, "[7]": {"tested_on": "antigen-specific T-cell responses", "assay": "In vivo antigen-specific T-cell response to vaccination", "parameters": "species or system mice", "conditions": "in vivo treatment", "description": "Tubastatin A-treated macrophages are better activators of […] and restore the responsiveness of anergicT-cells in vitro. […] Mechanistically, Tubastatin-A disrupt […] pathway and tip the balance towards immunogenic rather than tolerogenic macrophages."}, "[8]": {"tested_on": "B16 melanoma", "assay": "In vivo B16 melanoma tumor growth in C57BL/6 mice", "conditions": "25 mg/kg, intraperitoneal, three times weekly, B16 subcutaneous"}}}
{"compound": "Nc1ccccc1NC(=O)c1ccc(CNc2nccc(-c3cccnc3)n2)cc1", "note": "[MGCD0103]", "values": [{"measurement": "concentration range inhibiting proliferation (in words)", "setting": "[1]", "value": "low micromolar range"}, {"measurement": "acetylation of α-tubulin and histone", "setting": "[2]", "value": "unchanged"}, {"measurement": "cell cycle effects", "setting": "[3]", "value": "variable cell cycle effects"}]}
{"compound": "CN1CCc2c(c3ccccc3n2Cc2ccc(C(=O)NO)cc2)C1", "note": "[Tubastatin A, reference compound]", "values": [{"measurement": "GI50", "setting": "[4]", "value": "40.5 ± 1.21", "unit": "µM"}, {"measurement": "concentration range inhibiting proliferation (in words)", "setting": "[1]", "value": "low micromolar range"}, {"measurement": "acetylation of α-tubulin and histone", "setting": "[2]", "value": "increase acetyl-tubulin without modifying the acetylation status of Histone 3"}, {"measurement": "melanoma antigen expression at the mRNA level", "setting": "[5]", "value": "upregulation of melanoma antigens gp100, MART1, TYRP1 and TYRP2"}, {"measurement": "STAT3 phosphorylation and recruitment to the IL-10 gene promotor", "setting": "[6]", "value": "decreased STAT3 phosphorylation and recruitment to the IL-10 gene promotor"}, {"measurement": "antigen-specific T-cell responses to vaccination", "setting": "[7]", "value": "enhances antigen-specific T-cell responses to vaccination"}, {"measurement": "tumor growth", "setting": "[8]", "value": "delayed tumor growth"}]}
